Assay results reported in US11565264B2, “Expandable arrays and methods of use” (Rutgers, The State University of New Jersey, priority 2018, dated 2023).

Key:
U87 spheres = conditions: read-out: EC50 (median dose); GBM cell viability
Description: FIG. 15A illustrates the results of the cell titer glo assay that utilizes ATP levels and was used to determine GBM viability in the presence of component biomaterials. FIGS. 15B and 15C are low-power images of bright fields of spheres cultured for one week in the presence of the indicated chemicals and concentrations. The insets are higher power (20×) magnification of the 5× images.

GBM PDOs = test: 72-hour drug treatment of GBM patient derived organoids (PDOs) in basket arrays; assay type: cell-based; conditions: 72-hour treatment
Method: The basket arrays were used to deploy rapid single cell derived sphere and organoid assays to assess tumor cell viability, tumor invasion, terminal differentiation and resistance to therapy for cancer drug discovery and drug validation. […] PDOs were treated for 72-hours with standard chemotherapy (TMZ) and/or molecularly targeted agents, targeting mTOR, PI3K, BMI1, EGFR, and DDR, among others. Following treatments, the entire 4D printed basket arrays were evolved, with a 10-min heating step at 50° C., to their programmable cassette size to directly perform histological and IHC validation on the same day, and with the convenience of maintaining the same tissue plate arrangement. The concentrations inhibiting viability by 50% (GI50), real time activated caspase 3 for detection of apoptotic cells and GBM tumor cell invasion in live intact organoid cells were less impacted by standard TMZ than targeted therapies.

[1] = live intact organoid cells, TMZ compared with targeted therapies

EC50 (U87 spheres) | Compound | EGFR expression in organoid cells (GBM PDOs) | GBM tumor cell invasion (GBM PDOs; [1]) | concentrations inhibiting viability by 50% (GI50) (GBM PDOs; [1]) | real time activated caspase 3 for detection of apoptotic cells (GBM PDOs; [1])
7.2 µM | poly (Ethylene glycol) diacrylate 250 [PEGDA250] | – | – | – | –
– | Cn1nnc2c(C(N)=O)ncn2c1=O [TMZ] | not affected | less impacted | less impacted | less impacted
